These results are taken from ChEMBL document CHEMBL1135238, “Antibody-catalyzed cleavage of the D-Ala-D-Lac depsipeptide: an immunological approach to the problem of vancomycin resistance” (Bioorg Med Chem Lett, 2002).

Usually Ki stands for the dissociation constant of the complex between target and ligand, obtained from inhibition or displacement. Low values mean a stronger hold on the target, high ones a looser hold on the target. Broadly, the Km is the substrate concentration at which the rate is half of its maximum.

Square brackets hold non-standard residues; d marks the D form. Peptide text beside a SMILES is read from it.

A short description of assay [1]: inhibitory activity of compound using pentapeptide cell-wall peptidoglycan (PG) substrates.
A short description of assay [2]: Kcat value was determined.
A short description of assay [3]: Ratio of Kcat to Km was determined.
The nature of assay [4]: Ratio of Kcat to Kuncat was determined.
Assay [5] can be described thus: Km value was determined.

In assay [1], `CC(=O)NCCCC[C@H](NC(C)=O)C(=O)N[C@H](C)C(=O)N[C@H](C)C(=O)O` (Ac-Lys(Ac)-[dA]-[dA]-OH) came in with a Ki of 13 mM.

In turn, `CC(=O)NCCCC[C@H](NC(=O)CCNC(=O)CCCC(=O)ON1C(=O)CCC1=O)C(=O)N[C@H](C)P(=O)(O)O[C@H](C)C(=O)O` gave a k cat in assay [2] of 3.33e-05 s⁻¹. In assay [1], this compound registered a Ki of under 0.16 mM. Moreover, the Ratio is 0.921 in assay [3] and 530 in assay [4]. The Km in assay [5] is 2170 µM.
